Values joined by “and” are separate entries in the source; they are usually repeats but may differ in a detail not shown here. Equal entries are not always repeated. “Also recorded” adds a separate entry of the source. Where two headings read alike, the source gives them in different places.
Key:
[1] = system: KBV200 cells (KBV200细胞); settings: KBV200 cell line; cited from earlier work
[2] = system: KBV200 cells (KBV200细胞); test: MTT cytotoxicity test: growth inhibition of KBV200 cells by single agents; type: cell-based, human; settings: for IC50: KBv200; for inhibitory effect on tumour cells compared with another agent: artesunate versus artemisinin, dihydroartemisinin versus artesunate
[3] = system: KBV200 cells (KBV200细胞); test: Reversal of resistance: MTT growth inhibition of KBV200 cells by agent combined with VCR; type: cell-based, human; settings: for inhibition rate of KBV200 cells on combination with VCR: VCR concentration constant, three agent concentrations; for reversal of vincristine resistance / sensitisation of KBV200 to VCR: agent combined with VCR
[4] = system: tumour multidrug resistance (肿瘤多药耐药); settings: background; cited from earlier work
[5] = Homo sapiens, mass concentration in brackets beside the μmol/l value
[6] = Homo sapiens, single agent, 72 h (discussion)

O=c1[nH]cc(F)c(=O)[nH]1 [5-氟脲嘧啶]
resistance [1]: 耐药性较低

CC[C@]1(O)C[C@H]2CN(CCc3c([nH]c4ccccc34)[C@@](C(=O)OC)(c3cc4c(cc3OC)N(C=O)[C@H]3[C@@](O)(C(=O)OC)[C@H](OC(C)=O)[C@]5(CC)C=CCN6CC[C@]43[C@@H]65)C2)C1 [VCR, 长春新碱]
fold resistance [1]: ~175 fold
inhibition rate [2]: < 50%
inhibition at 0.125 µg/mL ([2]; Homo sapiens, KBv200, 72 h, VCR 0.125 μg/ml, 72 h, read-out: inhibition rate (IR)): 6.51 ± 2.59%
inhibition at 0.25 µg/mL ([2]; Homo sapiens, KBv200, 72 h, VCR 0.250 μg/ml, 72 h, read-out: inhibition rate (IR)): 9.06 ± 3.13%
inhibition at 0.5 µg/mL ([2]; Homo sapiens, KBv200, 72 h, VCR 0.500 μg/ml, 72 h, read-out: inhibition rate (IR)): 13.9 ± 3.54%
inhibition at 1 µg/mL ([2]; Homo sapiens, KBv200, 72 h, VCR 1.000 μg/ml, 72 h, read-out: inhibition rate (IR)): 25.6 ± 1.71%
inhibition at 2 µg/mL ([2]; Homo sapiens, KBv200, 72 h, VCR 2.000 μg/ml, 72 h, read-out: inhibition rate (IR)): 66.3 ± 0.01%
IC50 ([2]; Homo sapiens, VCR alone, 72 h): 1.58 ± 1.22 µg/mL
inhibition rate (IR) ([2]; VCR 0.500 μg/ml, 72 h): 13.96±3.54%
inhibition rate (IR) ([2]; VCR 1.000 μg/ml, 72 h): 25.65±1.71%
inhibition rate (IR) ([2]; VCR 2.000 μg/ml, 72 h): 66.31±0.01%
inhibitory effect on KBV200 cells ([2]; VCR above 1.58 μg/ml): 具有较为明显的抑制效应
inhibitory effect on KBV200 cells ([2]; VCR below 1 μg/ml): 抑制效应并不明显

CC1CCC2C(C)C(O)OC3OC4(C)CCC1C32OO4 (stereo not drawn) [二氢青蒿素]
IC50 [2, 5]: 3.18 µg/mL
IC50 [2, 6]: 11.2 µM
inhibitory effect on tumour cells compared with another agent [2]: 较青蒿琥酯次之
inhibition rate (IR) ([2]; dihydroartemisinin 0.156 μmol/l, 72 h): 0.680±0.84%
inhibition rate (IR) ([2]; dihydroartemisinin 0.313 μmol/l, 72 h): 0.940±3.87%
inhibition rate (IR) ([2]; dihydroartemisinin 1.250 μmol/l, 72 h): < 20% and 10.00±3.31%
inhibition rate (IR) ([2]; dihydroartemisinin 2.500 μmol/l, 72 h): < 20% and 18.50±4.88%
inhibition rate (IR) ([2]; dihydroartemisinin 5.000 μmol/l, 72 h): 32.30±10.1%
inhibition rate (IR) ([2]; dihydroartemisinin 10.00 μmol/l, 72 h): 48.69±6.53%
inhibition rate (IR) ([2]; dihydroartemisinin 20.00 μmol/l, 72 h): 71.98±7.16%
inhibition rate (IR) ([2]; dihydroartemisinin 40.00 μmol/l, 72 h): 89.99±4.39%
inhibition rate ([2]; dihydroartemisinin above 11.16 umol/l): > 50%
inhibitory effect on KBV200 cells ([2]; dihydroartemisinin below 0.313 umol/l): 几乎无抑制效应
inhibition rate ([2]; dihydroartemisinin below 2.5 umol/l): < 20%
inhibitory effect on KBV200 cells ([2]; dihydroartemisinin below 10 umol/l): 抑制效应并不明显
inhibitory effect on KBV200 cells ([2]; overall statement): 大浓度具有一定的抑制KBV200细胞增殖效应; also recorded: 均有一定抑制效应
inhibition rate of KBV200 cells on combination with VCR [3]: 略有提高
reversal of vincristine resistance / sensitisation of KBV200 to VCR [3]: 有一定的增敏作用
reversal fold (RI) ([3]; dihydroartemisinin 0.625 umol/l with VCR): 1.35
reversal fold (RI) ([3]; dihydroartemisinin 1.25 umol/l with VCR): 1.515
reversal fold (RI) ([3]; dihydroartemisinin 2.5 umol/l with VCR): 1.74

COc1cc2c(cc1OC)[C@@H]1Cc3ccc(OC)c(OC)c3CN1CC2 [左旋四氢马汀]
reversal fold [4]: 8.2-13.0

COc1cc2c(c(OC)c1OC)-c1ccc(OC)c(=O)cc1[C@@H](NC(C)=O)CC2 [秋水仙素]
fold resistance [1]: ~15 fold

COc1ccc2cc1Oc1ccc(cc1)C[C@H]1c3cc(c(OC)cc3CCN1C)Oc1c(OC)c(OC)cc3c1[C@H](C2)N(C)CC3 [粉防已碱]
reversal fold [4]: 8.2-13.0

CC(=O)O[C@H]1C(=O)[C@@]2(C)[C@H]([C@H](OC(=O)c3ccccc3)[C@]3(O)C[C@H](OC(=O)[C@H](O)[C@@H](NC(=O)c4ccccc4)c4ccccc4)C(C)=C1C3(C)C)[C@]1(OC(C)=O)CO[C@@H]1C[C@@H]2O [紫杉醇]
fold resistance [1]: ~156 fold

COc1cc2c(cc1OC)[C@@H](Cc1ccc(Oc3cc(C[C@@H]4c5cc(OC)c(OC)cc5CCN4C)ccc3O)cc1)N(C)CC2 [蝙蝠葛碱]
reversal fold [4]: 8.2-13.0

COc1cccc2c1C(=O)c1c(O)c3c(c(O)c1C2=O)C[C@@](O)(C(=O)CO)C[C@@H]3O[C@H]1C[C@H](N)[C@H](O)[C@H](C)O1 [阿霉素]
fold resistance [1]: ~15 fold

C[C@H]1[C@H](OC(=O)CCC(=O)O)O[C@@H]2O[C@@]3(C)CC[C@H]4[C@H](C)CC[C@@H]1[C@@]24OO3 [青蒿琥酯]
selective killing of KBV200 cells [2]: 有选择性杀伤作用
IC50 [2, 5]: 0.563 µg/mL
IC50 [2, 6]: 1.47 µM
inhibition rate (IR) ([2]; artesunate 0.0156 μmol/l (so in the source), 72 h): 9.520±4.910%
inhibition rate (IR) ([2]; artesunate 0.0390 μmol/l, 72 h): 1.640±3.520%
inhibition rate ([2]; artesunate 0.156 umol/l): < 20%
inhibition rate (IR) ([2]; artesunate 0.3130 μmol/l, 72 h): < 20% and 18.41±4.420%
inhibition rate (IR) ([2]; artesunate 0.6250 μmol/l, 72 h): 35.25±10.52%
inhibition rate (IR) ([2]; artesunate 1.2500 μmol/l, 72 h): 47.56±1.250%
inhibition rate (IR) ([2]; artesunate 2.5000 μmol/l, 72 h): 57.67±1.110%
inhibition rate (IR) ([2]; artesunate 5.0000 μmol/l, 72 h): 69.85±6.900%
inhibition rate (IR) ([2]; artesunate 10.000 μmol/l, 72 h): 84.47±0.600%
inhibition rate (IR) ([2]; artesunate 20.000 μmol/l, 72 h): 95.02±6.560%
inhibition rate ([2]; artesunate above 1.466 umol/l): > 50%
inhibitory effect on KBV200 cells ([2]; artesunate below 0.039 umol/l): 几乎无抑制效应
inhibition rate ([2]; artesunate below 0.313 umol/l): < 20%
inhibitory effect on KBV200 cells ([2]; artesunate below 1.25 umol/l): 抑制效应并不明显
inhibitory effect on tumour cells compared with another agent [2]: 比青蒿素显著增强
inhibitory effect on KBV200 cells ([2]; overall statement): 大浓度具有一定的抑制KBV200细胞增殖效应; also recorded: 均有一定抑制效应
inhibition rate of KBV200 cells on combination with VCR [3]: 略有提高
reversal of vincristine resistance / sensitisation of KBV200 to VCR [3]: 有一定的增敏作用
reversal fold (RI) ([3]; artesunate 0.078 umol/l with VCR): 1.19
reversal fold (RI) ([3]; artesunate 0.156 umol/l with VCR): 1.79
reversal fold (RI) ([3]; artesunate 0.313 umol/l with VCR): 2.57

C[C@@H]1CC[C@H]2[C@@H](C)C(=O)O[C@@H]3O[C@@]4(C)CC[C@@H]1[C@]32OO4 [青蒿素]
IC50 [2, 5]: 48.6 µg/mL
IC50 [2, 6]: 172 µM
inhibition rate (IR) ([2]; artemisinin 2.50 μmol/l, 72 h): 1.140±2.85%
inhibition rate (IR) ([2]; artemisinin 5.00 μmol/l, 72 h): 2.690±4.36%
inhibition rate (IR) ([2]; artemisinin 20.0 μmol/l, 72 h): < 20% and 12.70±2.53%
inhibition rate (IR) ([2]; artemisinin 40.0 μmol/l, 72 h): < 20% and 19.22±5.59%
inhibition rate (IR) ([2]; artemisinin 80.0 μmol/l, 72 h): 28.47±2.73%
inhibition rate (IR) ([2]; artemisinin 160 μmol/l, 72 h): 43.57±5.20%
inhibition rate ([2]; artemisinin above 172.4 umol/l): > 50%
inhibitory effect on KBV200 cells ([2]; artemisinin below 2.50 umol/l): 几乎无抑制效应
inhibition rate ([2]; artemisinin below 40 umol/l): < 20%
inhibition rate ([2]; artemisinin below 80 umol/l): < 30%
inhibitory effect on KBV200 cells ([2]; artemisinin below 160 umol/l): 抑制效应并不明显
inhibitory effect on KBV200 cells ([2]; overall statement): 大浓度具有一定的抑制KBV200细胞增殖效应; also recorded: 均有一定抑制效应
inhibition rate of KBV200 cells on combination with VCR [3]: 明显提高
reversal of vincristine resistance / sensitisation of KBV200 to VCR [3]: 可部分逆转; also recorded: 具有不同的逆转KBV200耐药效应
reversal fold (RI) ([3]; artemisinin 10 umol/l with VCR, RI = IC50 VCR / IC50 VCR+agent): 2.29
reversal fold (RI) ([3]; artemisinin 20 umol/l with VCR): 2.68
reversal fold (RI) ([3]; artemisinin 40 umol/l with VCR): 3.0

COC(=O)C[C@](O)(CCCC(C)(C)O)C(=O)O[C@@H]1C(OC)=C[C@]23CCCN2CCc2cc4c(cc2[C@H]13)OCO4 [高三尖杉酯]
resistance [1]: 耐药性较低

COc1cc([C@@H]2c3cc4c(cc3[C@@H](O[C@@H]3O[C@@H]5CO[C@@H](C)O[C@H]5[C@H](O)[C@H]3O)[C@H]3COC(=O)[C@H]23)OCO4)cc(OC)c1O [鬼臼乙叉甙]
resistance [1]: 耐药性较低

人参皂甙Rb1
reversal fold [4]: 8.2-13.0
